Assay results as given in patent US8709449B2, “Methods and compositions for improving photodynamic therapy through administration of lipids” (Biolitec Pharma Marketing Ltd, priority 2004, dated 2014).

Tests used:
[1] = Clinical monitoring of Foscan skin fluorescence by OBS in patients with basal-cell cancer after Foscan PDT; type: in vivo, human; conditions: ten patients
Protocol: Ten patients (6 male, 4 female) with basal-cell cancer (BCC) of the skin were treated with Foscan PDT course having a drug dose of 0.05 mg/kg, a drug-light interval 48 hours, and a 50 J/cm^2 light dose. Immediately after the laser treatment these patients were given intravenous drop infusions of 10% Lipofundin (250 ml). Patients were administered a second infusion of 10% Lipofundin solution (250 ml) the next day.
A group of ten patients (6 male, 4 female) with BCC of the skin, were administered Foscan PDT course having a drug dose of 0.05 mg/kg, a drug-light interval 48 hours, and a 50 J/cm^2 light dose. No 10% Lipofundin infusions were administered post-irradiation.
A computer-based spectrometer Optical Biopsy System (OBS) specially tuned for clinical monitoring of skin fluorescence was used to detect and measure skin fluorescence. The OBS uses a 400 nm diode laser to induce FOSCAN fluorescence (wavelength 655 nm) which is then detected and measured by the OBS spectrometer.
Fluorescence measurements were performed in intact skin of the cheek at certain time points after Foscan injection. Fluorescence monitoring began 2 days after Foscan administration and was continued for 7 weeks following Foscan administration. All measurements were performed by using contact tip (FD-1 Handstuck). Each fluorescence measurement was performed 4 times, all results were recorded, and the average value was used for further analysis.

[2] = Skin fluorescence in a dog after simultaneous injection of mTHPC and Lipofundin; type: in vivo; conditions: mTHPC diluted in Lipofundin to 0.75 mg/ml, simultaneous bolus injection
Protocol: FIG. 4—Graph of results of skin fluorescence in sarcoma and skin of a dog after simultaneous injection of mTHPC and Lipofundin.
In this example, a standard mTHPC solution, having 4 mg of mTHPC per ml of solution (4 mg/ml), was diluted in Lipofundin until the concentration of mTHPC in the mixture is 0.75 mg/ml. The mixture was then injected, thus both the photosensitizer and phospholipids were simultaneously injected. […] As is shown in FIG. 4, after only 6 hours, the fluorescence of the skin was substantially the same as that measured prior to injection, thus the skin was no longer photosensitive after this short amount of time.

[3] = mTHPC concentration in tumor, skin and plasma of mice after injection (Trial 1 mTHPC, Trial 2 LMF); type: in vivo, mouse
Protocol: FIG. 1—Graph showing meta-tetra(hydroxyphenyl)chlorin (“mTHPC”) concentration in tumor, skin and blood of a mouse after a dose of 10 μg mTHPC.
FIG. 2—Graph showing mTHPC concentration in tumor, skin and blood of a mouse after a dose of 5 μg mTHPC solubilized in Lipofundin MCT 10% (“LMF”).
This formulation is abbreviated “LMF”.

## Oc1cccc(-c2c3nc(c(-c4cccc(O)c4)c4ccc([nH]4)c(-c4cccc(O)c4)c4nc(c(-c5cccc(O)c5)c5ccc2[nH]5)CC4)C=C3)c1 [mTHPC, meta-tetra(hydroxyphenyl)chlorin]
[1]; 7 days after Foscan application, Control Group: Foscan 0.05 mg/kg PDT, no Lipofundin infusions
  Number of patients exhibiting no detectable skin fluorescence as detected by OBS: 0
[1]; 7 days after Foscan application, Experimental Group: Foscan 0.05 mg/kg PDT plus two 250 ml 10% Lipofundin infusions after irradiation
  Number of patients exhibiting no detectable skin fluorescence as detected by OBS: 0
[1]; 14 days after Foscan application, Control Group: Foscan 0.05 mg/kg PDT, no Lipofundin infusions
  Number of patients exhibiting no detectable skin fluorescence as detected by OBS: 0
[1]; 14 days after Foscan application, Experimental Group: Foscan 0.05 mg/kg PDT plus two 250 ml 10% Lipofundin infusions after irradiation
  Number of patients exhibiting no detectable skin fluorescence as detected by OBS: 2
[1]; 21 days after Foscan application, Control Group: Foscan 0.05 mg/kg PDT, no Lipofundin infusions
  Number of patients exhibiting no detectable skin fluorescence as detected by OBS: 2
[1]; 21 days after Foscan application, Experimental Group: Foscan 0.05 mg/kg PDT plus two 250 ml 10% Lipofundin infusions after irradiation
  Number of patients exhibiting no detectable skin fluorescence as detected by OBS: 5
[1]; 28 days after Foscan application, Control Group: Foscan 0.05 mg/kg PDT, no Lipofundin infusions
  Number of patients exhibiting no detectable skin fluorescence as detected by OBS: 7
[1]; 28 days after Foscan application, Experimental Group: Foscan 0.05 mg/kg PDT plus two 250 ml 10% Lipofundin infusions after irradiation
  Number of patients exhibiting no detectable skin fluorescence as detected by OBS: 10
[1]; 35 days after Foscan application, Control Group: Foscan 0.05 mg/kg PDT, no Lipofundin infusions
  Number of patients exhibiting no detectable skin fluorescence as detected by OBS: 10
[1]; 35 days after Foscan application, Experimental Group: Foscan 0.05 mg/kg PDT plus two 250 ml 10% Lipofundin infusions after irradiation
  Number of patients exhibiting no detectable skin fluorescence as detected by OBS: 10
[2]
  skin fluorescence after injection: rapid decrease in skin fluorescence
  time after which skin fluorescence was substantially the same as prior to injection: 6 h
[3]; Trial 1: mTHPC 10 μg per mouse, Trial 2: LMF, 5 μg mTHPC per mouse solubilized in Lipofundin
  time of peak tumor concentration of mTHPC: 24 h
[3]; after 24 hours, Trial 1 dose twice that of Trial 2
  skin concentration in Trial 1 relative to skin concentration after LMF injection: almost four times
[3]; mTHPC 10 μg per mouse, 12 hours, versus LMF peak
  tumor concentration in Trial 1 after 12 hours relative to peak tumor concentration in Trial 2: ⅔
[3]; skin, other: injection (site not specified), Trial 1, mTHPC 10 μg per mouse, after 24 hours
  concentration at 24 h: ~260 ng/g
